Blank lines part the entries; values can stand above or below the compound they belong to. Residues, ends and D or L forms follow the SMILES beside them. No end group written: not given here.
Key:
bilitranslocase (BTL) = conditions: ref [10]; cited from earlier work
TM3:TM3 = test: FRET titration of Atto488/Atto594-labelled peptides in SDS micelles, TM3:TM3 pair; assay type: binding; conditions: Atto488 donor/Atto594 acceptor, SDS micelle, TM3 with TM3, ratio of donor emission at 523 nm to acceptor emission at 627 nm, read-out: dissociation constant Kd
TM2:TM2 = test: FRET titration of Atto488/Atto594-labelled peptides in SDS micelles, TM2:TM2 pair; assay type: binding; conditions: Atto488 donor/Atto594 acceptor, SDS micelle, TM2 with TM2, ratio of donor emission at 523 nm to acceptor emission at 627 nm, read-out: dissociation constant Kd

Compound: C=CC1=C(C)/C(=C/c2[nH]c(Cc3[nH]c(/C=C4\NC(=O)C(C)=C4C=C)c(C)c3CCC(=O)O)c(CCC(=O)O)c2C)NC1=O [bilirubin]
allosteric effect on BTL (bilitranslocase (BTL)): positive allosteric effectors, inducing the BTL into its high-affinity state
effect on conversion between the two metastable BTL conformers (bilitranslocase (BTL)): accelerated

Compound: O=C(O)c1cccnc1 [nicotinic acid]
allosteric effect on BTL (bilitranslocase (BTL)): positive allosteric effectors, inducing the BTL into its high-affinity state

Kd (TM3:TM3): 191 µM
Compound: GSVQCAGLISLPIAIEFTYKKKK [TM3:TM3]

Kd (TM2:TM2): 71.9 µM
Compound: CC[C@H](C)[C@H](NC(=O)[C@H](C)NC(=O)[C@H](CCCCN)NC(=O)[C@H](CS)NC(=O)[C@H](CC(C)C)NC(=O)CNC(=O)[C@H](CO)NC(=O)[C@@H](NC(=O)CNC(=O)[C@H](C)NC(=O)[C@H](CO)NC(=O)[C@H](Cc1ccccc1)NC(=O)[C@@H]1CCCN1C(=O)[C@H](CO)NC(=O)[C@H](CCC(N)=O)NC(=O)[C@H](CC(C)C)NC(=O)[C@@H](NC(=O)[C@H](C)NC(=O)[C@@H](NC(=O)[C@H](Cc1ccccc1)NC(=O)[C@H](CC(C)C)NC(=O)[C@H](CS)NC(=O)[C@H](Cc1ccccc1)NC(=O)[C@H](CO)NC(=O)[C@@H](N)CO)C(C)C)[C@@H](C)O)C(C)C)C(=O)N[C@@H](CC(C)C)C(=O)N[C@@H](CC(C)C)C(=O)N[C@@H](CCCCN)C(=O)N[C@@H](CCCCN)C(=O)N[C@@H](CCCCN)C(=O)N[C@@H](CCCCN)C(=O)O [TM2:TM2] (H-SSFCLFVATLQSPFSAGVSGLCKAILLKKKK-OH)

From article PMC4546402, “Structural Model of the Bilitranslocase Transmembrane Domain Supported by NMR and FRET Data” (PLoS ONE, 2015)
